# Assays:
# Format in all cases: in vivo
# [1] = system: giant foxtail (Setaria faberi); assay: Test G Pre-Emergence Protocol; conditions: Setaria faberi, pre-emergence, 312 h, evaluated after 13 days; for pest or weed control at 15.625 g/ha: 15.625 g ai/ha; for pest or weed control at 15.625 g/ha / pest or weed control at 250 g/ha: read-out: Foxtail, Giant damage rating (100=total damage to plant; 0=no damage to plant); for pest or weed control at 62.5 g/ha: 62.5 g ai/ha, 100=total damage to plant, 0=no damage to plant, read-out: Foxtail, Giant damage rating; for pest or weed control at 250 g/ha: 250 g ai/ha
# Outline: (§1)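 Spraying took place one day after sowing, at 15.625, 62.5 or 250 g/ha, using an acetone/water (50:50) spray solution containing 0.5% Tween 20. Plants were kept under glasshouse conditions (24/16 °C, 14 h light, 65% humidity, watered twice daily), and injury was rated 0–100 at day 13.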
# [2] = system: redroot pigweed (Amaranthus retroflexus); assay: Test G Pre-Emergence Protocol; conditions: Amaranthus retroflexus, pre-emergence, 312 h, evaluated after 13 days; for pest or weed control at 15.625 g/ha: 15.625 g ai/ha; for pest or weed control at 15.625 g/ha / pest or weed control at 250 g/ha: read-out: Pigweed, Redroot damage rating (100=total damage to plant; 0=no damage to plant); for pest or weed control at 62.5 g/ha: 62.5 g ai/ha, 100=total damage to plant, 0=no damage to plant, read-out: Pigweed, Redroot damage rating; for pest or weed control at 250 g/ha: 250 g ai/ha
# Outline: as §1
# [3] = system: barnyardgrass (Echinochloa crus-galli); assay: Test G Pre-Emergence Protocol; conditions: Echinochloa crus-galli, pre-emergence, 312 h, evaluated after 13 days; for pest or weed control at 15.625 g/ha: 15.625 g ai/ha; for pest or weed control at 15.625 g/ha / pest or weed control at 250 g/ha: read-out: Barnyardgrass damage rating (100=total damage to plant; 0=no damage to plant); for pest or weed control at 62.5 g/ha: 62.5 g ai/ha, 100=total damage to plant, 0=no damage to plant, read-out: Barnyardgrass damage rating; for pest or weed control at 250 g/ha: 250 g ai/ha
# Outline: as §1
# [4] = system: velvetleaf (Abutilon theophrasti); assay: Test G Pre-Emergence Protocol; conditions: Abutilon theophrasti, pre-emergence, 312 h, evaluated after 13 days; for pest or weed control at 15.625 g/ha: 15.625 g ai/ha; for pest or weed control at 15.625 g/ha / pest or weed control at 250 g/ha: read-out: Velvetleaf damage rating (100=total damage to plant; 0=no damage to plant); for pest or weed control at 62.5 g/ha: 62.5 g ai/ha, 100=total damage to plant, 0=no damage to plant, read-out: Velvetleaf damage rating; for pest or weed control at 250 g/ha: 250 g ai/ha
# Outline: as §1
# corn (Zea mays) [5] = assay: Test G Pre-Emergence Protocol; conditions: Zea mays, pre-emergence, 312 h, evaluated after 13 days; for plant injury at 15.625 g/ha: 15.625 g ai/ha; for plant injury at 15.625 g/ha / plant injury at 250 g/ha: read-out: Corn damage rating (100=total damage to plant; 0=no damage to plant); for plant injury at 62.5 g/ha: 62.5 g ai/ha, 100=total damage to plant, 0=no damage to plant, read-out: Corn damage rating; for plant injury at 250 g/ha: 250 g ai/ha
# Outline: as §1
# [6] = system: ivy-leaved morning glory (Ipomoea hederacea); assay: Test G Pre-Emergence Protocol; conditions: Ipomoea, pre-emergence, 312 h, evaluated after 13 days; for pest or weed control at 15.625 g/ha: 15.625 g ai/ha; for pest or weed control at 15.625 g/ha / pest or weed control at 250 g/ha: read-out: Morningglory, Ivy-leaved damage rating (100=total damage to plant; 0=no damage to plant); for pest or weed control at 62.5 g/ha: 62.5 g ai/ha, 100=total damage to plant, 0=no damage to plant, read-out: Morningglory, Ivy-leaved damage rating; for pest or weed control at 250 g/ha: 250 g ai/ha
# Outline: as §1
# [7] = system: giant foxtail (Setaria faberi); assay: Test G Post-Emergence Protocol; conditions: Setaria faberi, post-emergence, 312 h, read-out: Foxtail, Giant damage rating; for pest or weed control at 15.625 g/ha: 15.625 g ai/ha, evaluated after 13 days (100=total damage to plant; 0=no damage to plant); for pest or weed control at 62.5 g/ha: 62.5 g ai/ha; for pest or weed control at 62.5 g/ha / pest or weed control at 250 g/ha: evaluated after 13 days, 100=total damage to plant, 0=no damage to plant; for pest or weed control at 250 g/ha: 250 g ai/ha
# Outline: (§2)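 Post-emergence herbicidal damage, scored visually 0–100 at 13 days. Application at 15.625, 62.5 or 250 g/ha onto 8-day-old plants grown under glasshouse control.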
# [8] = system: redroot pigweed (Amaranthus retroflexus); assay: Test G Post-Emergence Protocol; conditions: Amaranthus retroflexus, post-emergence, 312 h, read-out: Pigweed, Redroot damage rating; for pest or weed control at 15.625 g/ha: 15.625 g ai/ha, evaluated after 13 days (100=total damage to plant; 0=no damage to plant); for pest or weed control at 62.5 g/ha: 62.5 g ai/ha; for pest or weed control at 62.5 g/ha / pest or weed control at 250 g/ha: evaluated after 13 days, 100=total damage to plant, 0=no damage to plant; for pest or weed control at 250 g/ha: 250 g ai/ha
# Outline: as §2
# [9] = system: barnyardgrass (Echinochloa crus-galli); assay: Test G Post-Emergence Protocol; conditions: Echinochloa crus-galli, post-emergence, 312 h, read-out: Barnyardgrass damage rating; for pest or weed control at 15.625 g/ha: 15.625 g ai/ha, evaluated after 13 days (100=total damage to plant; 0=no damage to plant); for pest or weed control at 62.5 g/ha: 62.5 g ai/ha; for pest or weed control at 62.5 g/ha / pest or weed control at 250 g/ha: evaluated after 13 days, 100=total damage to plant, 0=no damage to plant; for pest or weed control at 250 g/ha: 250 g ai/ha
# Outline: as §2
# [10] = system: velvetleaf (Abutilon theophrasti); assay: Test G Post-Emergence Protocol; conditions: Abutilon theophrasti, post-emergence, 312 h, read-out: Velvetleaf damage rating; for pest or weed control at 15.625 g/ha: 15.625 g ai/ha, evaluated after 13 days (100=total damage to plant; 0=no damage to plant); for pest or weed control at 62.5 g/ha: 62.5 g ai/ha; for pest or weed control at 62.5 g/ha / pest or weed control at 250 g/ha: evaluated after 13 days, 100=total damage to plant, 0=no damage to plant; for pest or weed control at 250 g/ha: 250 g ai/ha
# Outline: as §2
# corn (Zea mays) [11] = assay: Test G Post-Emergence Protocol; conditions: Zea mays, post-emergence, 312 h, read-out: Corn damage rating; for plant injury at 15.625 g/ha: 15.625 g ai/ha, evaluated after 13 days (100=total damage to plant; 0=no damage to plant); for plant injury at 62.5 g/ha: 62.5 g ai/ha; for plant injury at 62.5 g/ha / plant injury at 250 g/ha: evaluated after 13 days, 100=total damage to plant, 0=no damage to plant; for plant injury at 250 g/ha: 250 g ai/ha
# Outline: as §2
# [12] = system: ivy-leaved morning glory (Ipomoea hederacea); assay: Test G Post-Emergence Protocol; conditions: Ipomoea, post-emergence, 312 h, read-out: Morningglory, Ivy-leaved damage rating; for pest or weed control at 15.625 g/ha: 15.625 g ai/ha, evaluated after 13 days (100=total damage to plant; 0=no damage to plant); for pest or weed control at 62.5 g/ha: 62.5 g ai/ha; for pest or weed control at 62.5 g/ha / pest or weed control at 250 g/ha: evaluated after 13 days, 100=total damage to plant, 0=no damage to plant; for pest or weed control at 250 g/ha: 250 g ai/ha
# Outline: as §2
Compound,pest or weed control at 15.625 g/ha [1] [%],pest or weed control at 62.5 g/ha [1] [%],pest or weed control at 250 g/ha [1] [%],pest or weed control at 15.625 g/ha [2] [%],pest or weed control at 62.5 g/ha [2] [%],pest or weed control at 250 g/ha [2] [%],pest or weed control at 15.625 g/ha [3] [%],pest or weed control at 62.5 g/ha [3] [%],pest or weed control at 250 g/ha [3] [%],pest or weed control at 15.625 g/ha [4] [%],pest or weed control at 62.5 g/ha [4] [%],pest or weed control at 250 g/ha [4] [%],plant injury at 15.625 g/ha (corn (Zea mays) [5]) [%],plant injury at 62.5 g/ha (corn (Zea mays) [5]) [%],plant injury at 250 g/ha (corn (Zea mays) [5]) [%],pest or weed control at 15.625 g/ha [6] [%],pest or weed control at 62.5 g/ha [6] [%],pest or weed control at 250 g/ha [6] [%],pest or weed control at 15.625 g/ha [7] [%],pest or weed control at 62.5 g/ha [7] [%],further results
CN1C[C@H](c2cccc(C(F)(F)F)c2)[C@@H](C(=O)Nc2cnccc2[N+](=O)[O-])C1=O (racemic) [Compound 1731],0,0,20,0,0,0,0,0,0,0,0,0,0,0,0,0,0,0,0,0,pest or weed control at 250 g/ha [7]: 0%; pest or weed control at 15.625 g/ha [8]: 0%; pest or weed control at 62.5 g/ha [8]: 0%; pest or weed control at 250 g/ha [8]: 10%; pest or weed control at 15.625 g/ha [9]: 0%; pest or weed control at 62.5 g/ha [9]: 0%; pest or weed control at 250 g/ha [9]: 0%; pest or weed control at 15.625 g/ha [10]: 0%; pest or weed control at 62.5 g/ha [10]: 0%; pest or weed control at 250 g/ha [10]: 0%; plant injury at 15.625 g/ha (corn (Zea mays) [11]): 0%; plant injury at 62.5 g/ha (corn (Zea mays) [11]): 0%; plant injury at 250 g/ha (corn (Zea mays) [11]): 0%; pest or weed control at 15.625 g/ha [12]: 0%; pest or weed control at 62.5 g/ha [12]: 0%; pest or weed control at 250 g/ha [12]: 0%
Cc1cc(F)ncc1NC(=O)[C@H]1C(=O)N(C)C[C@@H]1c1ccc(C(F)(F)F)cc1 (racemic) [Compound 1733],10,80,90,0,70,80,0,20,70,0,50,80,0,20,80,0,20,80,10,80,pest or weed control at 250 g/ha [7]: 80%; pest or weed control at 15.625 g/ha [8]: 10%; pest or weed control at 62.5 g/ha [8]: 20%; pest or weed control at 250 g/ha [8]: 80%; pest or weed control at 15.625 g/ha [9]: 0%; pest or weed control at 62.5 g/ha [9]: 0%; pest or weed control at 250 g/ha [9]: 80%; pest or weed control at 15.625 g/ha [10]: 0%; pest or weed control at 62.5 g/ha [10]: 40%; pest or weed control at 250 g/ha [10]: 80%; plant injury at 15.625 g/ha (corn (Zea mays) [11]): 0%; plant injury at 62.5 g/ha (corn (Zea mays) [11]): 50%; plant injury at 250 g/ha (corn (Zea mays) [11]): 70%; pest or weed control at 15.625 g/ha [12]: 20%; pest or weed control at 62.5 g/ha [12]: 60%; pest or weed control at 250 g/ha [12]: 70%
CN1C[C@H](c2cccc(C(F)(F)F)c2)[C@@H](C(=O)Nc2cc(C#N)ccn2)C1=O (racemic) [Compound 1735],0,0,0,0,0,0,0,0,0,0,0,0,0,0,0,0,0,0,0,0,pest or weed control at 250 g/ha [7]: 0%; pest or weed control at 15.625 g/ha [8]: 0%; pest or weed control at 62.5 g/ha [8]: 0%; pest or weed control at 250 g/ha [8]: 0%; pest or weed control at 15.625 g/ha [9]: 0%; pest or weed control at 62.5 g/ha [9]: 0%; pest or weed control at 250 g/ha [9]: 0%; pest or weed control at 15.625 g/ha [10]: 0%; pest or weed control at 62.5 g/ha [10]: 0%; pest or weed control at 250 g/ha [10]: 0%; plant injury at 15.625 g/ha (corn (Zea mays) [11]): 0%; plant injury at 62.5 g/ha (corn (Zea mays) [11]): 0%; plant injury at 250 g/ha (corn (Zea mays) [11]): 0%; pest or weed control at 15.625 g/ha [12]: 0%; pest or weed control at 62.5 g/ha [12]: 0%; pest or weed control at 250 g/ha [12]: 0%

# From patent publication US12077503B2, “Substituted cyclic amides and their use as herbicides” (FMC CORPORATION, priority 2015, dated 2024)
